In PMC7822874, “Chemoprotective antimalarials identified through quantitative high-throughput screening of Plasmodium blood and liver stage parasites” (Scientific Reports, 2021):
Where two headings read alike, the source gives them in different places.

What was measured:
[1] = system: P. falciparum Dd2 Cytb A122D; test: SYBR Green ABS proliferation assay, NCGC00473217 selected clone F12; format: cell-based, Plasmodium falciparum; details: Plasmodium falciparum
Description: (§1) As resistance selection studies implicated the parasite cytochrome bc1 complex in mediating reduced parasite susceptibility to both NCGC00473217 and NCGC00374598, we leveraged these drug-selected parasites to test for altered drug response to a panel of antimalarial compounds.
(§2) The P. falciparum parasite Dd2 line was cultured in vitro using standard conditions. […] Tissue culture flasks and assay plates were incubated at 37 °C under a gas mixture of 5% CO2, 5% O2 and 90% N2. […] Significant differences were assessed using two-sided Student’s t-tests. All HTS assays were stopped and read at 72 h. Percent response values represent relative growth as judged by SYBR Green-I fluorescence intensity values normalized to controls.
(§3) Fresh uninfected RBCs (0.5% hematocrit) were added on day 7 and media was changed every other day. […] Resistant parasites were maintained under drug media at a volume of 50 mL until a high parasitemia (> 5%) was achieved. Aliquots of the bulk resistant cultures were frozen in cryovials before cloning by limiting dilution in 96-well plates (seeded at 0.25 or 0.5 parasites/well)[70]. After 3 weeks of cloning, we screened for positive wells by flow cytometry with SYBR Green-stained cells. […] Parasites were harvested by saponin lysis at the trophozoite stage and genomic DNA was extracted using the QIAamp DNA Blood Midi Kit (Qiagen, Germantown, MD)[71].

[2] = system: P. falciparum Dd2 Cytb G131S; test: SYBR Green ABS proliferation assay, NCGC00374598 selected clone C11; format: cell-based, Plasmodium falciparum; details: Plasmodium falciparum
Description: as §1, §2, §3

in vitro [3] = details: human, hepg2 cells
[4] = system: luciferase-expressing P. berghei liver stage parasites in HepG2 cells; test: Inhibition of liver-stage development assay (ILSDA), Method 2 (WRAIR, 96-well); format: cell-based, Plasmodium berghei; details: for AC50: Plasmodium berghei, HepG2, Method 2
HepG2 = details: human, hepg2 cells, 48 h
[5] = system: Plasmodium falciparum Dd2 asexual blood stage parasites; test: microbe, parasite or virus in culture; set-up: species or system Plasmodium falciparum Dd2 in human erythrocytes; single determination (one 11-point concentration-response curve); details: Plasmodium falciparum, DD2, Erythrocyte, 72 h; read-out: AC50
[6] = system: P. berghei-ANKA-GFP-LucCON liver stage parasites in HepG2-A16-CD81EGFP cells; test: P. berghei liver stage Pb-Luc assay, Method 1 (UCSD, 1536-well); format: cell-based, Plasmodium berghei; details: for Max Resp (signal direction of the dose response): Decrease = decreasing P. berghei viability with dose, Increase = increasing signal, Inactive = no dose response; for activity at 1 µM / activity at 3 µM: 48 h
[7] = system: P. falciparum Dd2 Cytb V259L; test: SYBR Green ABS proliferation assay, NCGC00473217 selected clone F06; format: cell-based, Plasmodium falciparum; details: Plasmodium falciparum, DD2, […]; averaged from three independent replicates; top concentration 29 µM; read-out: Average AC50 (Log[M]), NCGC00473217 clone F06 (Cytb V259L) (converted)
Description: as §1, §2, §3

[8] = system: P. falciparum Dd2 (clone B2) asexual blood stage parasites; test: P. falciparum Dd2 asexual blood stage SYBR Green-I 72 h proliferation assay (qHTS); format: cell-based, Plasmodium falciparum; details: Plasmodium falciparum, DD2, Dd2 parental; Hill fit, averaged from three independent replicates; top concentration 29 µM; read-out: Average AC50 (Log[M]), Dd2 (converted)
in vitro [9] = details: human, HepG2-A16-CD81EGFP cells, uninfected
[10] = Method 1, log10 of molar AC50 from Hill fit
[11] = Plasmodium berghei, Method 1, log10 of molar AC50 from Hill fit, read-out: Log AC50 (converted)
[12] = DD2, […], averaged from three independent replicates, top concentration 29 µM, read-out: Average AC50 (Log[M]), NCGC00473217 clone F12 (Cytb A122D) (converted)
[13] = DD2, […], averaged from three independent replicates, top concentration 29 µM, read-out: Average AC50 (Log[M]), NCGC00374598 clone C11 (Cytb G131S) (converted)
[14] = Method 2, Decrease = decreasing P. berghei viability with dose, Increase = increasing signal, Inactive = no dose response
[15] = Hill fit, 50% of maximum activity response, read-out: AC50
[16] = log10 of molar AC50 from Hill fit, read-out: Log AC50 (converted)

## CC(C)CC1=N[S+](=O)([O-])c2cc(NC(=O)c3ccc(F)s3)ccc2N1C [NCGC00651708-01]
[1]; DD2, cytochrome b mutant line, fourth value triple, c12, […], read-out: log AC50, mean (converted)
  AC50: 2.11e-06 M
[2]; DD2, cytochrome b mutant line, second value triple, c6, […], read-out: log AC50, mean (converted)
  AC50: 2.99e-06 M

## COc1ccc(CCN2CCC(Nc3nc4ccccc4n3Cc3ccc(F)cc3)CC2)cc1 [NCGC00016913-08]
In vitro [3]
  CC50 at 48 h: 34300 nM
[4]
  Max Resp (signal direction of the dose response): Inactive
HepG2
  Log AC50 (M): -4.4643 M
[5]
  AC50: 2370 nM
[6]
  AC50: 3160 nM
[6]; Method 1
  Max Resp (signal direction of the dose response): Decrease
[6]; [10]
  Log AC50 (M): -5.500 M
[6]; [11]
  AC50: 2820 nM

## CCCN1C(CC(C)C)=N[S+](=O)([O-])c2cc(NC(=O)c3ccc(C(F)(F)F)cc3)ccc21 [NCGC00531759-01]
[1]; [12]
  AC50: 8.93e-10 M
[7]
  AC50: 8.93e-07 M
[2]; [13]
  AC50: 2.52e-06 M

## CN1C(CSCC(F)(F)F)Nc2cc(Cl)c(S(N)(=O)=O)cc2S1(=O)=O (stereo not drawn) [NCGC00182076-03]
[1]; [12]
  AC50: 1e-08 M
[8]
  AC50: 2.82e-06 M
[2]; [13]
  AC50: 3.56e-06 M

## COc1ccccc1Nc1cnc2ccc(-c3ccc(OC)c(OC)c3)nn12 [NCGC00412573-01]
In vitro [3]
  CC50 at 48 h: 44400 nM
[4]; P. berghei liver stage, Method 2, dose response
  Activity direction (Decrease / Inactive): Inactive
In vitro [9]
  viability at 48 h, 1 µM: 108%
  viability at 48 h, 3 µM: 73.1%
HepG2
  Log AC50 (M): -4.3528 M
[5]
  AC50: 1530 nM
HepG2-A16-CD81EGFP cells; nominal 1 uM (10 mM stock), […] for 15 mM, 1.2 uM for 12 mM, 2 uM for 20 mM stock, average of 2 wells, repeat 2
  HepG2 viability signal, 1 uM, repeat 2: 106.68%
HepG2-A16-CD81EGFP cells; nominal 3 uM (10 mM stock), 4.5 uM for 15 mM, 3.6 uM for 12 mM, 6 uM for 20 mM stock, average of 2 wells, repeat 2
  HepG2 viability signal, 3 uM, repeat 2: 92.36%
[6]; Method 1
  Max Resp (signal direction of the dose response): Decrease
[6]; Method 1, Hill fit, 50% of maximum activity response, read-out: AC50
  AC50: 447 nM
[6]; [10]
  Log AC50 (M): -6.350 M
[6]; Plasmodium berghei, nominal 1 uM (10 mM stock), […] for 15 mM, 1.2 uM for 12 mM, 2 uM for 20 mM stock, average of 2 wells, 1536-well plate, repeat 1, read-out: Pb-Luc signal, 1 uM, repeat 1
  activity at 1 µM: 7.11%
[6]; Plasmodium berghei, nominal 1 uM (10 mM stock), […] for 15 mM, 1.2 uM for 12 mM, 2 uM for 20 mM stock, average of 2 wells, 1536-well plate, repeat 2, read-out: Pb-Luc signal, 1 uM, repeat 2
  activity at 1 µM: 51.2%
[6]; Plasmodium berghei, nominal 1 uM (10 mM stock), […] for 15 mM, 1.2 uM for 12 mM, 2 uM for 20 mM stock, average of 2 wells, 1536-well plate, repeat 3, read-out: Pb-Luc signal, 1 uM, repeat 3
  activity at 1 µM: 2.63%
[6]; Plasmodium berghei, nominal 3 uM (10 mM stock), 4.5 uM for 15 mM, 3.6 uM for 12 mM, 6 uM for 20 mM stock, average of 2 wells, 1536-well plate, repeat 1, read-out: Pb-Luc signal, 3 uM, repeat 1
  activity at 3 µM: 1.18%
[6]; Plasmodium berghei, nominal 3 uM (10 mM stock), 4.5 uM for 15 mM, 3.6 uM for 12 mM, 6 uM for 20 mM stock, average of 2 wells, 1536-well plate, repeat 2, read-out: Pb-Luc signal, 3 uM, repeat 2
  activity at 3 µM: 32.2%
[6]; Plasmodium berghei, nominal 3 uM (10 mM stock), 4.5 uM for 15 mM, 3.6 uM for 12 mM, 6 uM for 20 mM stock, average of 2 wells, 1536-well plate, repeat 3, read-out: Pb-Luc signal, 3 uM, repeat 3
  activity at 3 µM: 43.3%
[6]; Plasmodium berghei, Method 1, Hill fit, 50% of maximum activity response, read-out: AC50
  AC50: 355 nM
[6]; [11]
  AC50: 355 nM

## CCO.Nc1nc(N)c2cc(Sc3ccc4ccccc4c3)ccc2n1 [MLS000757047-01]
In vitro [3]
  CC50 at 48 h: 27300 nM
[4]; [14]
  Max Resp (signal direction of the dose response): Decrease
[4]; [15]
  AC50: 2240 nM
[4]; [16]
  AC50: 2240 nM
In vitro [9]
  viability at 48 h, 1 µM: 103%
  viability at 48 h, 3 µM: 93%
HepG2
  Log AC50 (M): -4.5643 M
[5]
  AC50: 1330 nM
HepG2-A16-CD81EGFP cells
  HepG2 viability, % of control, higher concentration, second repeat: 96%
  HepG2 viability, % of control, lower concentration, second repeat: 99%
[6]; Plasmodium berghei, 1 uM (compounds provided at 10 mM), average of 2 wells on a 1536 well plate, column 11, read-out: Pb-Luc (P. berghei liver stage), % of control, lower concentration, first repeat
  activity at 1 µM: 12%
[6]; Plasmodium berghei, 1 uM (compounds provided at 10 mM), average of 2 wells on a 1536 well plate, column 12, read-out: Pb-Luc (P. berghei liver stage), % of control, lower concentration, second repeat
  activity at 1 µM: 12%
[6]; Plasmodium berghei, 3 uM (compounds provided at 10 mM), average of 2 wells on a 1536 well plate, column 8, read-out: Pb-Luc (P. berghei liver stage), % of control, higher concentration, first repeat
  activity at 3 µM: 11%
[6]; Plasmodium berghei, 3 uM (compounds provided at 10 mM), average of 2 wells on a 1536 well plate, column 9, read-out: Pb-Luc (P. berghei liver stage), % of control, higher concentration, second repeat
  activity at 3 µM: 10%

## O=C1c2ccccc2C2=Nc3ccccc3SC(c3ccc(Cl)cc3)C12 (stereo not drawn) [MLS000566883-01]
In vitro [3]
  CC50 at 48 h: 43200 nM
[4]; [14]
  Max Resp (signal direction of the dose response): Decrease
[4]; [15]
  AC50: 3980 nM
[4]; [16]
  AC50: 3980 nM
In vitro [9]
  viability at 48 h, 1 µM: 90%
  viability at 48 h, 3 µM: 85%
HepG2
  Log AC50 (M): -4.3643 M
[5]
  AC50: 2660 nM
